Data: PubChem BioAssay AID2060333 (Molecular Pharmacology Branch, DTP, NCI, 2025)

System: 845751-090-R-J2-PDC tumor spheroid viability
Experiment: Anticancer human tumor 845751-090-R-J2-PDC patient-derived head and neck squamous carcinoma cell line growth inhibition [IpAb]
Conditions: spheroids with HUVEC and MSC; for IC50: curve of first compound; for viability, T/C: stronger effect = lower value
Procedure, shortened: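 Multi-cell spheroids of 60% tumour cells, 25% HUVEC and 15% MSC in ultra-low-attachment U-bottom wells, treated with agents combined with ipatasertib or abemaciclib. Half-log ranges top out near clinical Cmax, or 10 microM when Cmax is unknown.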

[1] = second compound 0.01 µM, first compound 0.0316 µM
[2] = second compound 0.01 µM, first compound 0.1 µM
[3] = second compound 0.01 µM, first compound 0.316 µM
[4] = second compound 0.01 µM, first compound 1 µM
[5] = second compound 0.0316 µM, first compound 0.0316 µM
[6] = second compound 0.0316 µM, first compound 0.1 µM
[7] = second compound 0.0316 µM, first compound 0.316 µM
[8] = second compound 0.0316 µM, first compound 1 µM
[9] = second compound 0.1 µM, first compound 0.0316 µM
[10] = second compound 0.1 µM, first compound 0.1 µM
[11] = second compound 0.1 µM, first compound 0.316 µM
[12] = second compound 0.1 µM, first compound 1 µM
[13] = second compound 0.316 µM, first compound 0.0316 µM
[14] = second compound 0.316 µM, first compound 0.1 µM
[15] = second compound 0.316 µM, first compound 0.316 µM
[16] = second compound 0.316 µM, first compound 1 µM
[17] = second compound 1 µM, first compound 0.0316 µM
[18] = second compound 1 µM, first compound 0.1 µM
[19] = second compound 1 µM, first compound 0.316 µM
[20] = second compound 1 µM, first compound 1 µM
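Further: spheroids exposed to compounds for 7 days before readout.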
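Wherever viability, T/C is given: CTG3D luminescence normalised so that 100% = DMSO vehicle control.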

| Structure (SMILES) | IC50 (second compound 0.01 µM) [nM] | IC50 (second compound 0.0316 µM) [nM] | IC50 (second compound 0.1 µM) [nM] | IC50 (second compound 0.316 µM) [nM] | IC50 (second compound 1 µM) [nM] | viability, T/C [1] [%] | viability, T/C [2] [%] | viability, T/C [3] [%] | viability, T/C [4] [%] | viability, T/C [5] [%] | viability, T/C [6] [%] | viability, T/C [7] [%] | viability, T/C [8] [%] | viability, T/C [9] [%] | viability, T/C [10] [%] | viability, T/C [11] [%] | viability, T/C [12] [%] | viability, T/C [13] [%] | viability, T/C [14] [%] | viability, T/C [15] [%] | other results |
| --- | --- | --- | --- | --- | --- | --- | --- | --- | --- | --- | --- | --- | --- | --- | --- | --- | --- | --- | --- | --- | --- |
| COc1c(OCCCN2CCOCC2)ccc2c3n(c(=NC(=O)c4cnc(N)nc4)nc12)CCN3 + CCN1CCN(Cc2ccc(Nc3ncc(F)c(-c4cc(F)c5nc(C)n(C(C)C)c5c4)n3)nc2)CC1 | 7.18 | 4.99 | 5.23 | 6.38 | 10.6 | 30.8 | 13.7 | 10.6 | 4.54 | 28.3 | 11.9 | 8.73 | 3.86 | 26.3 | 11.7 | 12.8 | 3.55 | 24.6 | 15.8 | 11.7 | viability, T/C (second compound 0.01 µM, first compound 0.00316 µM): 63.3%; viability, T/C (second compound 0.01 µM, first compound 0.01 µM): 43.5%; viability, T/C (second compound 0.0316 µM, first compound 0.00316 µM): 54%; viability, T/C (second compound 0.0316 µM, first compound 0.01 µM): 43.6%; viability, T/C (second compound 0.1 µM, first compound 0.00316 µM): 56.5%; viability, T/C (second compound 0.1 µM, first compound 0.01 µM): 41.6%; viability, T/C (second compound 0.316 µM, first compound 0.00316 µM): 68.2%; viability, T/C (second compound 0.316 µM, first compound 0.01 µM): 35.9%; viability, T/C [16]: 4.79%; viability, T/C (second compound 1 µM, first compound 0.00316 µM): 60%; viability, T/C (second compound 1 µM, first compound 0.01 µM): 54.1%; viability, T/C [17]: 31.2%; viability, T/C [18]: 21.5%; viability, T/C [19]: 12.6%; viability, T/C [20]: 5.48% |
| Cc1nc(NC(=O)N2CCCC2C(N)=O)sc1-c1ccnc(C(C)(C)C(F)(F)F)c1 (stereo not given) + CCN1CCN(Cc2ccc(Nc3ncc(F)c(-c4cc(F)c5nc(C)n(C(C)C)c5c4)n3)nc2)CC1 | 101 | 76.4 | < 31.6 | 36.2 | 114 | 69.5 | 46.2 | 37.3 | 28.9 | 62.1 | 41.9 | 40.9 | 22.5 | 41.8 | 43.6 | 27.4 | 20.8 | 51.2 | 39.8 | 25.9 | viability, T/C (second compound 0.01 µM, first compound 3.16 µM): 12.9%; viability, T/C (second compound 0.01 µM, first compound 10 µM): 11.6%; viability, T/C (second compound 0.0316 µM, first compound 3.16 µM): 15.5%; viability, T/C (second compound 0.0316 µM, first compound 10 µM): 10.9%; viability, T/C (second compound 0.1 µM, first compound 3.16 µM): 14.7%; viability, T/C (second compound 0.1 µM, first compound 10 µM): 10.1%; viability, T/C [16]: 20.9%; viability, T/C (second compound 0.316 µM, first compound 3.16 µM): 17.9%; viability, T/C (second compound 0.316 µM, first compound 10 µM): 12.4%; viability, T/C [17]: 54.9%; viability, T/C [18]: 50.5%; viability, T/C [19]: 42.4%; viability, T/C [20]: 24.1%; viability, T/C (second compound 1 µM, first compound 3.16 µM): 18.7%; viability, T/C (second compound 1 µM, first compound 10 µM): 11.3% |
